Reference: publication PMC5218480 (PLoS ONE, 2017)

System: MV-4-11 cells
Experiment: Gene expression microarray analysis (Affymetrix PrimeView) and GSEA
Assay type: cell-based, human
Parameters: RFU PODN (11730768_x_at) / Fold change /veh PODN (11730768_x_at) / RFU LINC00158 (11744669_a_at) / Fold change /veh LINC00158 (11744669_a_at) / RFU DUSP10 (11751237_a_at) / Fold change /veh DUSP10 (11751237_a_at) / RFU ID3 (11757404_x_at) / Fold change /veh ID3 (11757404_x_at) / RFU PLEKHG5 (11737974_s_at) / Fold change /veh PLEKHG5 (11737974_s_at) / RFU LRRC4B (11730491_at) / Fold change /veh LRRC4B (11730491_at) / RFU GIMAP4 (11747438_a_at) / Fold change /veh GIMAP4 (11747438_a_at) / RFU KRT8 (11758183_x_at) / Fold change /veh KRT8 (11758183_x_at) / RFU CNN1 (11734310_a_at) / Fold change /veh CNN1 (11734310_a_at) / RFU VPS37D (11726825_at) / Fold change /veh VPS37D (11726825_at) / RFU C10orf10 (11716522_x_at) / Fold change /veh C10orf10 (11716522_x_at) / RFU KIR2DL2 /// KIR2DL4 /// KIR2DL5A /// KIR2DL5B /// KIR2DS1 /// KIR2DS2 /// KIR2DS3 /// KIR2DS4 /// KIR3DL3 /// KIR3DL3 /// KIR3DS1 (11738374_at) / Fold change /veh KIR2DL2 /// KIR2DL4 /// KIR2DL5A /// KIR2DL5B /// KIR2DS1 /// KIR2DS2 /// KIR2DS3 /// KIR2DS4 /// KIR3DL3 /// KIR3DL3 /// KIR3DS1 (11738374_at) / RFU C1QL1 (11718748_at) / Fold change /veh C1QL1 (11718748_at) / RFU TMPRSS4 (11747572_a_at) / Fold change /veh TMPRSS4 (11747572_a_at) / RFU HAMP (11756126_x_at) / Fold change /veh HAMP (11756126_x_at) / RFU RNFT2 (11725882_a_at) / Fold change /veh RNFT2 (11725882_a_at) / RFU NR4A2 (11747474_a_at) / Fold change /veh NR4A2 (11747474_a_at) / RFU ABCC12 (11746883_a_at) / Fold change /veh ABCC12 (11746883_a_at) / RFU TMEM136 (11760407_x_at) / Fold change /veh TMEM136 (11760407_x_at) / RFU CLDN22 /// WWC2 (11732394_at) / Fold change /veh CLDN22 /// WWC2 (11732394_at) / RFU HLA-DPB1 (11760878_x_at) / Fold change /veh HLA-DPB1 (11760878_x_at) / RFU SPINT1 (11716480_a_at) / Fold change /veh SPINT1 (11716480_a_at) / RFU GAP43 (11754022_s_at) / Fold change /veh GAP43 (11754022_s_at) / RFU A4GNT (11735810_at) / Fold change /veh A4GNT (11735810_at) / RFU PRB3 (11715151_x_at) / Fold change /veh PRB3 (11715151_x_at) / RFU TUBB4B (11761932_at) / Fold change /veh TUBB4B (11761932_at) / RFU CAPN14 (11732068_a_at) / Fold change /veh CAPN14 (11732068_a_at) / RFU TMCC2 (11721928_a_at) / Fold change /veh TMCC2 (11721928_a_at) / RFU IRGQ (11745062_a_at) / Fold change /veh IRGQ (11745062_a_at) / RFU FAM174B (11720279_a_at) / Fold change /veh FAM174B (11720279_a_at) / RFU TMPRSS4 (11748680_a_at) / Fold change /veh TMPRSS4 (11748680_a_at) / RFU FAM212B (11763350_a_at) / Fold change /veh FAM212B (11763350_a_at) / RFU PLEKHG5 (11743358_a_at) / Fold change /veh PLEKHG5 (11743358_a_at) / RFU ZSCAN30 (11745921_a_at) / Fold change /veh ZSCAN30 (11745921_a_at) / RFU CMKLR1 (11741424_a_at) / Fold change /veh CMKLR1 (11741424_a_at) / RFU LOC101060620 /// MAPK8IP1 (11723275_at) / Fold change /veh LOC101060620 /// MAPK8IP1 (11723275_at) / RFU SPTSSB (11747773_x_at) / Fold change /veh SPTSSB (11747773_x_at) / RFU PRSS12 (11739890_at) / Fold change /veh PRSS12 (11739890_at) / RFU BIN1 (11741810_x_at) / Fold change /veh BIN1 (11741810_x_at) / RFU WNT11 (11732464_a_at) / Fold change /veh WNT11 (11732464_a_at) / RFU C10orf10 (11716521_a_at) / Fold change /veh C10orf10 (11716521_a_at) / RFU C5orf56 (11738089_at) / Fold change /veh C5orf56 (11738089_at) / RFU CYB561 (11721691_x_at) / Fold change /veh CYB561 (11721691_x_at) / RFU ANKRD19P (11752326_a_at) / Fold change /veh ANKRD19P (11752326_a_at) / RFU OR2T12 /// OR2T33 /// OR2T8 (11738714_s_at) / Fold change /veh OR2T12 /// OR2T33 /// OR2T8 (11738714_s_at) / RFU VCAN (11748164_a_at) / Fold change /veh VCAN (11748164_a_at) / RFU JSRP1 (11732532_at) / Fold change /veh JSRP1 (11732532_at) / RFU KRTAP10-11 (11738290_x_at) / Fold change /veh KRTAP10-11 (11738290_x_at) / RFU MYO3A (11730013_a_at) / Fold change /veh MYO3A (11730013_a_at) / RFU EBF3 (11725865_a_at) / Fold change /veh EBF3 (11725865_a_at) / RFU CAMK2N1 (11719241_x_at) / Fold change /veh CAMK2N1 (11719241_x_at) / RFU C5orf56 (11738088_a_at) / Fold change /veh C5orf56 (11738088_a_at) / RFU OLFML3 (11715873_a_at) / Fold change /veh OLFML3 (11715873_a_at) / RFU LOC100653217 /// NTM (11731650_a_at) / Fold change /veh LOC100653217 /// NTM (11731650_a_at) / RFU MAPK11 (11762145_a_at) / Fold change /veh MAPK11 (11762145_a_at) / RFU FIZ1 (11724087_x_at) / Fold change /veh FIZ1 (11724087_x_at) / RFU OASL (11726364_x_at) / Fold change /veh OASL (11726364_x_at) / RFU SOX15 (11748057_x_at) / Fold change /veh SOX15 (11748057_x_at) / RFU CD79A (11719716_a_at) / Fold change /veh CD79A (11719716_a_at) / RFU HIST1H1D (11736915_at) / Fold change /veh HIST1H1D (11736915_at) / RFU CASKIN2 (11723855_a_at) / Fold change /veh CASKIN2 (11723855_a_at) / RFU LOC730098 (11760151_x_at) / Fold change /veh LOC730098 (11760151_x_at) / RFU OR4N2 (11742367_at) / Fold change /veh OR4N2 (11742367_at) / RFU PRRT2 (11749266_a_at) / Fold change /veh PRRT2 (11749266_a_at) / RFU SNX32 (11753110_a_at) / Fold change /veh SNX32 (11753110_a_at) / RFU CDHR5 (11726645_a_at) / Fold change /veh CDHR5 (11726645_a_at) / RFU RCAN1 (11760418_a_at) / Fold change /veh RCAN1 (11760418_a_at) / RFU FAM167A (11723789_a_at) / Fold change /veh FAM167A (11723789_a_at) / RFU FAM26E (11764081_at) / Fold change /veh FAM26E (11764081_at) / RFU ISYNA1 (11749810_s_at) / Fold change /veh ISYNA1 (11749810_s_at) / RFU ACY1 (11761880_at) / Fold change /veh ACY1 (11761880_at) / RFU 11764098_at / Fold change /veh 11764098_at / RFU SAMD14 (11745864_x_at) / Fold change /veh SAMD14 (11745864_x_at) / RFU NPB (11741838_a_at) / Fold change /veh NPB (11741838_a_at) / RFU TMPRSS6 (11731388_a_at) / Fold change /veh TMPRSS6 (11731388_a_at) / RFU KRTAP10-2 (11738614_at) / Fold change /veh KRTAP10-2 (11738614_at) / RFU ARHGAP8 /// PRR5-ARHGAP8 (11727945_x_at) / Fold change /veh ARHGAP8 /// PRR5-ARHGAP8 (11727945_x_at) / RFU KRTAP5-7 /// NADSYN1 (11734609_at) / Fold change /veh KRTAP5-7 /// NADSYN1 (11734609_at) / RFU RASL12 (11751679_a_at) / Fold change /veh RASL12 (11751679_a_at) / RFU CDKN2B (11736163_a_at) / Fold change /veh CDKN2B (11736163_a_at) / RFU PRF1 (11729649_at) / Fold change /veh PRF1 (11729649_at) / RFU, ZNF638 /// ZNF638-IT1 / Fold change vs veh, ZNF638 /// ZNF638-IT1 / RFU, PANK3 / Fold change vs veh, PANK3 / RFU, SH3YL1 / Fold change vs veh, SH3YL1 / RFU, ZEB2 / Fold change vs veh, ZEB2 / RFU, NRIP1 / Fold change vs veh, NRIP1 / RFU, PTTG1IP / Fold change vs veh, PTTG1IP / RFU, CAPN2 / Fold change vs veh, CAPN2 / RFU, MED14 / Fold change vs veh, MED14 / RFU, SNORA58 / Fold change vs veh, SNORA58 / RFU, C1orf63 / Fold change vs veh, C1orf63 / RFU, LRRFIP1 / Fold change vs veh, LRRFIP1 / RFU, NDUFAF7 / Fold change vs veh, NDUFAF7 / RFU, SLC12A2 / Fold change vs veh, SLC12A2 / RFU, IBTK / Fold change vs veh, IBTK / RFU, ESF1 / Fold change vs veh, ESF1 / Fold change vs veh, TMEM50B / RFU, TAOK1 / Fold change vs veh, TAOK1 / RFU, ACBD3 / Fold change vs veh, ACBD3 / RFU, TMA16 / Fold change vs veh, TMA16 / RFU, RWDD3 / Fold change vs veh, RWDD3 / RFU, BCAT1 / Fold change vs veh, BCAT1 / RFU, EDEM3 / Fold change vs veh, EDEM3 / RFU, TMEM33 / Fold change vs veh, TMEM33 / RFU, WDR75 / Fold change vs veh, WDR75 / RFU, AHCTF1 / Fold change vs veh, AHCTF1 / RFU, TFRC / Fold change vs veh, TFRC / RFU, ZDHHC17 / Fold change vs veh, ZDHHC17 / RFU, NOM1 / Fold change vs veh, NOM1 / RFU, ARL8B / Fold change vs veh, ARL8B / RFU, ZBTB11 / Fold change vs veh, ZBTB11 / RFU, TAMM41 / Fold change vs veh, TAMM41 / RFU, KIAA1704 /// LOC100996395 / Fold change vs veh, KIAA1704 /// LOC100996395 / RFU, ING1 / Fold change vs veh, ING1 / RFU, TRMT61B / Fold change vs veh, TRMT61B / RFU, FUBP3 / Fold change vs veh, FUBP3 / RFU, TP53 / Fold change vs veh, TP53 / RFU, TNKS2 / Fold change vs veh, TNKS2 / RFU, ZFP14 / Fold change vs veh, ZFP14 / RFU, ACTR2 / Fold change vs veh, ACTR2 / RFU, PPP3R1 / Fold change vs veh, PPP3R1 / RFU, PIK3R1 / Fold change vs veh, PIK3R1 / RFU, HNRNPA1 / Fold change vs veh, HNRNPA1 / RFU, RNF170 / Fold change vs veh, RNF170 / RFU, ZNF28 / Fold change vs veh, ZNF28 / RFU, RNGTT / Fold change vs veh, RNGTT / RFU, OGT / Fold change vs veh, OGT / RFU, BRD1 / Fold change vs veh, BRD1 / RFU, MARS / Fold change vs veh, MARS / RFU, ZNF655 / Fold change vs veh, ZNF655 / RFU, FAHD1 / Fold change vs veh, FAHD1 / RFU, BDP1 / Fold change vs veh, BDP1 / RFU, LRRCC1 / Fold change vs veh, LRRCC1 / RFU, ARID1A / Fold change vs veh, ARID1A / RFU, ZNF146 / Fold change vs veh, ZNF146 / RFU, ZNF330 / Fold change vs veh, ZNF330 / RFU, GPN3 / Fold change vs veh, GPN3 / RFU, C9orf123 / Fold change vs veh, C9orf123 / RFU, N4BP2L2 / Fold change vs veh, N4BP2L2 / RFU, ARFIP1 / Fold change vs veh, ARFIP1 / RFU, FAM179B / Fold change vs veh, FAM179B / RFU, BCL10 / Fold change vs veh, BCL10 / RFU, UHRF1BP1L / Fold change vs veh, UHRF1BP1L / RFU, BET1 / Fold change vs veh, BET1 / RFU, CNOT2 / Fold change vs veh, CNOT2 / RFU, ZNF268 / Fold change vs veh, ZNF268 / Fold change vs veh, ZNF507 / RFU, DGCR2 / Fold change vs veh, DGCR2 / RFU, WDSUB1 / Fold change vs veh, WDSUB1 / Fold change vs veh, HSP90B1 /// MIR3652 / RFU, ADSS / Fold change vs veh, ADSS / RFU, GK / Fold change vs veh, GK / RFU, ZNF148 / Fold change vs veh, ZNF148 / RFU, TAF9 / Fold change vs veh, TAF9 / RFU, SLC1A5 / Fold change vs veh, SLC1A5 / RFU, SLMO2 / Fold change vs veh, SLMO2 / RFU, ABCC4 / Fold change vs veh, ABCC4 / RFU, LOC101060439 /// RAP1B / Fold change vs veh, LOC101060439 /// RAP1B / RFU, RFX7 / Fold change vs veh, RFX7 / RFU, GTPBP10 / Fold change vs veh, GTPBP10 / RFU, CNEP1R1 / Fold change vs veh, CNEP1R1 / RFU, BIVM-ERCC5 /// ERCC5 / Fold change vs veh, BIVM-ERCC5 /// ERCC5 / RFU, ILF3 / Fold change vs veh, ILF3 / RFU 11762660_at / Fold change /veh 11762660_at / RFU VCAN (11757783_s_at) / Fold change /veh VCAN (11757783_s_at) / RFU DDX43 (11728927_at) / Fold change /veh DDX43 (11728927_at) / RFU KRT8 (11758188_x_at) / Fold change /veh KRT8 (11758188_x_at) / RFU NKD1 (11759106_at) / Fold change /veh NKD1 (11759106_at) / RFU SRD5A1 (11742802_a_at) / Fold change /veh SRD5A1 (11742802_a_at) / RFU TPSAB1 /// TPSB2 (11721975_s_at) / Fold change /veh TPSAB1 /// TPSB2 (11721975_s_at) / RFU GSTM3 (11746129_a_at) / Fold change /veh GSTM3 (11746129_a_at) / RFU IL23R (11737362_x_at) / Fold change /veh IL23R (11737362_x_at) / RFU TMEM51 (11727254_a_at) / Fold change /veh TMEM51 (11727254_a_at) / RFU PIWIL2 (11732686_x_at) / Fold change /veh PIWIL2 (11732686_x_at) / RFU ORM1 (11744905_x_at) / Fold change /veh ORM1 (11744905_x_at) / RFU CCDC152 (11743942_at) / Fold change /veh CCDC152 (11743942_at) / RFU ECM1 (11717891_a_at) / Fold change /veh ECM1 (11717891_a_at) / RFU IL23R (11748794_a_at) / Fold change /veh IL23R (11748794_a_at) / RFU TNFAIP8L3 (11732012_x_at) / Fold change /veh TNFAIP8L3 (11732012_x_at) / RFU MBOAT4 (11741988_at) / Fold change /veh MBOAT4 (11741988_at) / RFU 11764193_at / Fold change /veh 11764193_at / RFU TMEM53 (11763286_at) / Fold change /veh TMEM53 (11763286_at) / RFU MAGEB2 (11727129_at) / Fold change /veh MAGEB2 (11727129_at) / RFU TMEM200A (11744735_a_at) / Fold change /veh TMEM200A (11744735_a_at) / RFU CCDC152 (11751479_a_at) / Fold change /veh CCDC152 (11751479_a_at) / RFU FAM211A (11726209_a_at) / Fold change /veh FAM211A (11726209_a_at) / RFU RGS16 (11746705_a_at) / Fold change /veh RGS16 (11746705_a_at) / RFU VCAN (11755009_s_at) / Fold change /veh VCAN (11755009_s_at) / RFU RHOB (11743442_s_at) / Fold change /veh RHOB (11743442_s_at) / RFU RGS16 (11720943_a_at) / Fold change /veh RGS16 (11720943_a_at) / RFU RGS16 (11720944_at) / Fold change /veh RGS16 (11720944_at) / RFU, VPS4B / Fold change vs veh, VPS4B / RFU, CREB1 / Fold change vs veh, CREB1 / RFU, DNAJC13 / Fold change vs veh, DNAJC13 / RFU, GNAQ / Fold change vs veh, GNAQ / RFU, CDK5R1 / Fold change vs veh, CDK5R1 / RFU, ZRANB3 / Fold change vs veh, ZRANB3 / RFU, CUL4A / Fold change vs veh, CUL4A / RFU, CCNY / Fold change vs veh, CCNY / RFU, UFL1 / Fold change vs veh, UFL1 / RFU, COG3 / Fold change vs veh, COG3 / RFU, DIAPH2 / Fold change vs veh, DIAPH2 / RFU, SKA2 / Fold change vs veh, SKA2 / RFU, AFF3 / Fold change vs veh, AFF3 / RFU, LMF1 / Fold change vs veh, LMF1 / RFU, IPO11 / Fold change vs veh, IPO11 / RFU, DFFB / Fold change vs veh, DFFB / RFU, FOXP1 / Fold change vs veh, FOXP1 / RFU, CARD8 / Fold change vs veh, CARD8 / RFU, STRN3 / Fold change vs veh, STRN3 / RFU, ADK / Fold change vs veh, ADK / RFU, RASSF2 / Fold change vs veh, RASSF2 / RFU, WIPF1 / Fold change vs veh, WIPF1 / RFU, LARP1B / Fold change vs veh, LARP1B / RFU, RASA1 / Fold change vs veh, RASA1 / RFU, RB1 / Fold change vs veh, RB1 / RFU, PPFIA1 / Fold change vs veh, PPFIA1 / RFU, MAT2A / Fold change vs veh, MAT2A / RFU, CCT5 / Fold change vs veh, CCT5 / RFU, WDR92 / Fold change vs veh, WDR92 / RFU, CUX1 / Fold change vs veh, CUX1 / RFU, TTC7A / Fold change vs veh, TTC7A / RFU, TMEM135 / Fold change vs veh, TMEM135 / RFU, DEPTOR / Fold change vs veh, DEPTOR / RFU, CPM / Fold change vs veh, CPM / RFU, DNAJB6 / Fold change vs veh, DNAJB6 / RFU, CACNA2D3 / Fold change vs veh, CACNA2D3 / RFU, DTX4 / Fold change vs veh, DTX4 / RFU, TFCP2 / Fold change vs veh, TFCP2 / RFU, GMCL1 /// GMCL1P1 / Fold change vs veh, GMCL1 /// GMCL1P1 / RFU, AEBP2 / Fold change vs veh, AEBP2 / RFU, SNHG1 /// SNORD22 /// SNORD25 /// SNORD26 /// SNORD27 /// SNORD28 /// SNORD29 /// SNORD31 / Fold change vs veh, SNHG1 /// SNORD22 /// SNORD25 /// SNORD26 /// SNORD27 /// SNORD28 /// SNORD29 /// SNORD31 / Fold change (Aza/veh), C12orf56 (ProbeSet 11735607_a_at) / Fold change (ACY-1035/veh), C12orf56 (ProbeSet 11735607_a_at) / Fold change (Aza/veh), FGFR1OP (ProbeSet 11751329_s_at) / Fold change (ACY-1035/veh), FGFR1OP (ProbeSet 11751329_s_at) / Fold change (Aza/veh), VPS36 (ProbeSet 11739960_a_at) / Fold change (ACY-1035/veh), VPS36 (ProbeSet 11739960_a_at) / RFU SYPL1 (11715823_x_at) / Fold change /veh SYPL1 (11715823_x_at) / RFU IGFBP7 (11715501_s_at) / Fold change /veh IGFBP7 (11715501_s_at) / RFU REEP3 (11722064_at) / Fold change /veh REEP3 (11722064_at) / RFU IGLL1 (11728026_x_at) / Fold change /veh IGLL1 (11728026_x_at): dose or concentration left out as unconfirmed
Conditions: ProbeSet 11729173_a_at; LIST D

## Nc1ncn([C@@H]2O[C@H](CO)[C@@H](O)[C@H]2O)c(=O)n1 [azacitidine]
  RFU, SKA2: 326.42 RFU
